From patent publication US20250262201A1, “COMPOUNDS AND METHODS USEFUL FOR STABILIZING PHENYLALANINE HYDROXYLASE MUTATIONS” (Agios Pharmaceuticals, Inc., priority 2022, published 2025) come the findings set out here.

As usually defined, the AC50 is the concentration giving half of the maximal activity seen.

The assay addresses T1, human PAH with the R408W mutation (Homo sapiens, UniProt P00439, R408W).
T1 construct: expressed in transfected cells
T1 sequence (P00439 1-452 R408W): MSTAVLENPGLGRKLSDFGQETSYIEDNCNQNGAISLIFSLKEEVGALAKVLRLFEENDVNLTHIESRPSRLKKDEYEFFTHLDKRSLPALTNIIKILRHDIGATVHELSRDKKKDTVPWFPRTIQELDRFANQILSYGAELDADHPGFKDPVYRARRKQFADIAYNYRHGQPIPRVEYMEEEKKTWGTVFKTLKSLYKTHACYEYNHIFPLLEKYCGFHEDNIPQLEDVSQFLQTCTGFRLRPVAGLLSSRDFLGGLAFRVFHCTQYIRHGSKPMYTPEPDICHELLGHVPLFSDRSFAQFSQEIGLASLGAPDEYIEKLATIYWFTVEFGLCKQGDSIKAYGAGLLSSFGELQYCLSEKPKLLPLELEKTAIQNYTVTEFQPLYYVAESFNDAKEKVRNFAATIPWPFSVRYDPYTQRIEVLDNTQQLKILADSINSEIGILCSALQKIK
Briefly: Cell Based Phenylalanine Flux Assay. The settings on record: A375 cells expressing human R408W PAH; 24 hrs compound incubation; 13C-Tyrosine by LC-MS; average where tested multiple times; read-out: AC50.
Consider `Cc1c(-c2nnc(C(=O)N3CCc4[nH]cnc4[C@H]3c3cc4ccccc4cn3)o2)cnn1C` [Example 446, (R)-(5-(1,5-dimethyl-1H-pyrazol-4-yl)-1,3,4-oxadiazol-2-yl)(4-(isoquinolin-3-yl)-6,7-dihydro-1H-imidazo[4,5-c]pyridin-5(4H)-yl)methanone], for which the AC50 is less than 500 nM.
Regarding `Cn1nccc1-c1nnc(C(=O)N2CCc3[nH]cnc3[C@H]2c2cc3ccccc3cn2)o1` [Example 447, (R)-(4-(isoquinolin-3-yl)-6,7-dihydro-1H-imidazo[4,5-c]pyridin-5(4H)-yl)(5-(1-methyl-1H-pyrazol-5-yl)-1,3,4-oxadiazol-2-yl)methanone], the AC50 is less than 500 nM.
To `O=C(c1nnc(-c2ccncc2)o1)N1CCc2[nH]cnc2[C@H]1c1cc2ccccc2cn1` [Example 448, (R)-(4-(isoquinolin-3-yl)-6,7-dihydro-1H-imidazo[4,5-c]pyridin-5(4H)-yl)(5-(pyridin-4-yl)-1,3,4-oxadiazol-2-yl)methanone] belongs less than 500 nM; to `O=C(c1nnc(-c2cnn(C3CCC3)c2)o1)N1CCc2[nH]cnc2[C@H]1c1cc2ccccc2cn1` [Example 449, (R)-(5-(1-cyclobutyl-1H-pyrazol-4-yl)-1,3,4-oxadiazol-2-yl)(4-(isoquinolin-3-yl)-6,7-dihydro-1H-imidazo[4,5-c]pyridin-5(4H)-yl)methanone], less than 500 nM.
To `Cc1nn(C)cc1-c1nnc(C(=O)N2CCc3[nH]cnc3[C@H]2c2cc3ccccc3cn2)o1` [Example 450, (R)-(5-(1,3-dimethyl-1H-pyrazol-4-yl)-1,3,4-oxadiazol-2-yl)(4-(isoquinolin-3-yl)-6,7-dihydro-1H-imidazo[4,5-c]pyridin-5(4H)-yl)methanone] belongs less than 500 nM.
To `O=C(c1nnc(-c2cc[nH]n2)o1)N1CCc2[nH]cnc2[C@H]1c1cc2ccccc2cn1` [Example 451, (R)-(5-(1H-pyrazol-3-yl)-1,3,4-oxadiazol-2-yl)(4-(isoquinolin-3-yl)-6,7-dihydro-1H-imidazo[4,5-c]pyridin-5(4H)-yl)methanone] belongs less than 500 nM; to `O=C(c1cnn2cc(C3CC3)ccc12)N1CCc2[nH]cnc2[C@H]1c1cc2ccccc2cn1` [Example 452, (R)-(6-cyclopropylpyrazolo[1,5-a]pyridin-3-yl)(4-(isoquinolin-3-yl)-6,7-dihydro-1H-imidazo[4,5-c]pyridin-5(4H)-yl)methanone], less than 500 nM; to `COCCc1ccc2c(C(=O)N3CCc4[nH]cnc4[C@H]3c3cc4ccccc4cn3)cnn2c1` [Example 453, (R)-(4-(isoquinolin-3-yl)-6,7-dihydro-1H-imidazo[4,5-c]pyridin-5(4H)-yl)(6-(2-methoxyethyl)pyrazolo[1,5-a]pyridin-3-yl)methanone], less than 500 nM.
Consider `O=C(c1nnc(-c2cn[nH]c2)o1)N1CCc2[nH]cnc2[C@H]1c1cc2ccccc2cn1` [Example 454, (R)-(5-(1H-pyrazol-4-yl)-1,3,4-oxadiazol-2-yl)(4-(isoquinolin-3-yl)-6,7-dihydro-1H-imidazo[4,5-c]pyridin-5(4H)-yl)methanone], for which the AC50 lay in the range of 500 to 1000 nM.
To `Cc1cnn(C)c1-c1nnc(C(=O)N2CCc3[nH]cnc3[C@H]2c2cc3ccccc3cn2)o1` [Example 455, (R)-(5-(1,4-dimethyl-1H-pyrazol-5-yl)-1,3,4-oxadiazol-2-yl)(4-(isoquinolin-3-yl)-6,7-dihydro-1H-imidazo[4,5-c]pyridin-5(4H)-yl)methanone] belongs less than 500 nM; to `Cn1cc(-c2ccc3c(C(=O)N4CCc5[nH]cnc5[C@H]4c4cc5ccccc5cn4)cnn3c2)cn1` [Example 456, (R)-(4-(isoquinolin-3-yl)-6,7-dihydro-1H-imidazo[4,5-c]pyridin-5(4H)-yl)(6-(1-methyl-1H-pyrazol-4-yl)pyrazolo[1,5-a]pyridin-3-yl)methanone], less than 500 nM.
In the case of `CN1CCN(c2ccc3c(C(=O)N4CCc5[nH]cnc5[C@H]4c4cc5ccccc5cn4)cnn3c2)CC1` [Example 457, (R)-(4-(isoquinolin-3-yl)-6,7-dihydro-1H-imidazo[4,5-c]pyridin-5(4H)-yl)(6-(4-methylpiperazin-1-yl)pyrazolo[1,5-a]pyridin-3-yl)methanone], the AC50 was less than 500 nM.
Take `O=C(c1cnn2cc(N3CCOCC3)ccc12)N1CCc2[nH]cnc2[C@H]1c1cc2ccccc2cn1` [Example 458, (R)-(4-(isoquinolin-3-yl)-6,7-dihydro-1H-imidazo[4,5-c]pyridin-5(4H)-yl)(6-morpholinopyrazolo[1,5-a]pyridin-3-yl)methanone]: the AC50 is less than 500 nM.
Turning to `O=C(c1cnn2cc(Br)c(Cl)cc12)N1CCc2[nH]cnc2[C@H]1c1cc2ccccc2cn1` [Example 459, (R)-(6-bromo-5-chloropyrazolo[1,5-a]pyridin-3-yl)(4-(isoquinolin-3-yl)-6,7-dihydro-1H-imidazo[4,5-c]pyridin-5(4H)-yl)methanone], the half-maximal activity concentration (AC50) is less than 500 nM.
To `COc1ccc2c(C(=O)N3CCc4[nH]cnc4[C@H]3c3cc4ccccc4cn3)cnn2c1` [Example 460, (R)-(4-(isoquinolin-3-yl)-6,7-dihydro-1H-imidazo[4,5-c]pyridin-5(4H)-yl)(6-methoxypyrazolo[1,5-a]pyridin-3-yl)methanone] belongs less than 500 nM; to `O=C(c1cnn2cc(-c3ccccn3)ccc12)N1CCc2[nH]cnc2[C@H]1c1cc2ccccc2cn1` [Example 461, (R)-(4-(isoquinolin-3-yl)-6,7-dihydro-1H-imidazo[4,5-c]pyridin-5(4H)-yl)(6-(pyridin-2-yl)pyrazolo[1,5-a]pyridin-3-yl)methanone], less than 500 nM; to `O=C(c1cnn2ccc(Cl)cc12)N1CCc2[nH]cnc2[C@H]1c1cc2ccccc2cn1` [Example 462, (R)-(5-chloropyrazolo[1,5-a]pyridin-3-yl)(4-(isoquinolin-3-yl)-6,7-dihydro-1H-imidazo[4,5-c]pyridin-5(4H)-yl)methanone], less than 500 nM.
To `O=C(c1cnn2cc(N3CCOCC3)c(Cl)cc12)N1CCc2[nH]cnc2[C@H]1c1cc2ccccc2cn1` [Example 463, (R)-(5-chloro-6-morpholinopyrazolo[1,5-a]pyridin-3-yl)(4-(isoquinolin-3-yl)-6,7-dihydro-1H-imidazo[4,5-c]pyridin-5(4H)-yl)methanone] belongs less than 500 nM; to `CN1CCN(c2cn3ncc(C(=O)N4CCc5[nH]cnc5[C@H]4c4cc5ccccc5cn4)c3cc2Cl)CC1` [Example 464, (R)-(5-chloro-6-(4-methylpiperazin-1-yl)pyrazolo[1,5-a]pyridin-3-yl)(4-(isoquinolin-3-yl)-6,7-dihydro-1H-imidazo[4,5-c]pyridin-5(4H)-yl)methanone], less than 500 nM.
With `C[C@@H](O)c1nnc(C(=O)N2CCc3[nH]cnc3[C@H]2c2cc3ccccc3cn2)o1` [Example 465, (5-((R)-1-hydroxyethyl)-1,3,4-oxadiazol-2-yl)((R)-4-(isoquinolin-3-yl)-6,7-dihydro-1H-imidazo[4,5-c]pyridin-5(4H)-yl)methanone], the AC50 was in the range of 500 to 1000 nM.
To `Cc1ccc2c(C(=O)N3CCc4[nH]cnc4[C@H]3c3cc4ccccc4cn3)cnn2c1` [Example 466, (R)-(4-(isoquinolin-3-yl)-6,7-dihydro-1H-imidazo[4,5-c]pyridin-5(4H)-yl)(6-methylpyrazolo[1,5-a]pyridin-3-yl)methanone] belongs less than 500 nM; to `O=C(c1cnn2cc(Cl)ccc12)N1CCc2[nH]cnc2[C@H]1c1cc2ccccc2cn1` [Example 467, (R)-(6-chloropyrazolo[1,5-a]pyridin-3-yl)(4-(isoquinolin-3-yl)-6,7-dihydro-1H-imidazo[4,5-c]pyridin-5(4H)-yl)methanone], less than 500 nM.
On to `CN(C)CCc1ccc2c(C(=O)N3CCc4[nH]cnc4[C@H]3c3cc4ccccc4cn3)cnn2c1` [Example 468, (R)-(6-(2-(dimethylamino)ethyl)pyrazolo[1,5-a]pyridin-3-yl)(4-(isoquinolin-3-yl)-6,7-dihydro-1H-imidazo[4,5-c]pyridin-5(4H)-yl)methanone], for which the concentration at half-maximal activity (AC50) is less than 500 nM.
On to `O=C(c1nnc(-c2cnccn2)o1)N1CCc2[nH]cnc2[C@H]1c1cc2ccccc2cn1` [Example 469, (R)-(4-(isoquinolin-3-yl)-6,7-dihydro-1H-imidazo[4,5-c]pyridin-5(4H)-yl)(5-(pyrazin-2-yl)-1,3,4-oxadiazol-2-yl)methanone], for which the AC50 is less than 500 nM.
To `CN(C)c1ccc2c(C(=O)N3CCc4[nH]cnc4[C@H]3c3cc4ccccc4cn3)cnn2c1` [Example 470, (R)-(6-(dimethylamino)pyrazolo[1,5-a]pyridin-3-yl)(4-(isoquinolin-3-yl)-6,7-dihydro-1H-imidazo[4,5-c]pyridin-5(4H)-yl)methanone] belongs less than 500 nM; to `O=C(c1nnc(-c2ccncn2)o1)N1CCc2[nH]cnc2[C@H]1c1cc2ccccc2cn1` [Example 471, (R)-(4-(isoquinolin-3-yl)-6,7-dihydro-1H-imidazo[4,5-c]pyridin-5(4H)-yl)(5-(pyrimidin-4-yl)-1,3,4-oxadiazol-2-yl)methanone], less than 500 nM.
To `Cc1cc(-c2nnc(C(=O)N3CCc4[nH]cnc4[C@H]3c3cc4ccccc4cn3)o2)nn1C` [Example 472, (R)-(5-(1,5-dimethyl-1H-pyrazol-3-yl)-1,3,4-oxadiazol-2-yl)(4-(isoquinolin-3-yl)-6,7-dihydro-1H-imidazo[4,5-c]pyridin-5(4H)-yl)methanone] belongs less than 500 nM.
